According to ChEMBL document CHEMBL1671651, “Azithromycin in Pseudomonas aeruginosa biofilms: bactericidal activity and selection of nfxB mutants” (2009):
Converted amounts (≈) assume the structure as drawn.

How the values were obtained:
Format in all cases: functional
Pseudomonas aeruginosa [1] = experiment: Antimicrobial activity against mutS::lox-deficient Pseudomonas aeruginosa PAOMSA biofilm harboring nfxB C116T mutant gene selected at 1 ug/ml of azithromycin after 1 passages by Etest method
Pseudomonas aeruginosa [2] = experiment: Antimicrobial activity against mutS::lox-deficient Pseudomonas aeruginosa PAOMS biofilm by Etest method
Pseudomonas aeruginosa [3] = experiment: Antimicrobial activity against mexD::lox-deficient Pseudomonas aeruginosa PAOMxD biofilm by Etest method
Pseudomonas aeruginosa [4] = experiment: Antimicrobial activity against mutS::lox-deficient Pseudomonas aeruginosa PAOMSB biofilm harboring nfxB T77C mutant gene selected at 4 ug/ml of azithromycin after 6 passages by Etest method
Pseudomonas aeruginosa [5] = experiment: Antimicrobial activity against mutS::lox-deficient Pseudomonas aeruginosa PAOMSA biofilm harboring nfxB T86C mutant gene selected at 4 ug/ml of azithromycin after 4 passages by Etest method
Pseudomonas aeruginosa [6] = experiment: Antimicrobial activity against mucA::lox, mutS::lox-deficient Pseudomonas aeruginosa PAOMSA biofilm by Etest method
Pseudomonas aeruginosa [7] = experiment: Antimicrobial activity against mucA::lox-deficient Pseudomonas aeruginosa PAOMA biofilm by Etest method
Pseudomonas aeruginosa [8] = experiment: Antimicrobial activity against mucA::lox, mutS::lox-deficient Pseudomonas aeruginosa PAOMSAB biofilm harboring nfxB T86C mutant gene selected at 4 ug/ml of azithromycin after 2 passages by Etest method
Pseudomonas aeruginosa [9] = experiment: Antimicrobial activity against mucA::lox, mutS::lox-deficient Pseudomonas aeruginosa PAOMSAB biofilm harboring nfxB T544C mutant gene selected at 4 ug/ml of azithromycin after 1 passages by Etest method
Pseudomonas aeruginosa [10] = experiment: Antimicrobial activity against nfxB gene-deficient Pseudomonas aeruginosa PAONB biofilm by Etest method
Pseudomonas aeruginosa [11] = experiment: Antimicrobial activity against mutS::lox-deficient Pseudomonas aeruginosa PAOMSB biofilm harboring deletion od C534 in nfxB mutant gene selected at 4 ug/ml of azithromycin after 2 passages by Etest method
Pseudomonas aeruginosa [12] = experiment: Antimicrobial activity against mucA::lox-deficient Pseudomonas aeruginosa PAOMAA biofilm harboring nfxB C25T mutant gene selected at 1 ug/ml of azithromycin after 2 passages by Etest method
Pseudomonas aeruginosa [13] = experiment: Antimicrobial activity against mutS::lox-deficient Pseudomonas aeruginosa PAOMSA biofilm harboring nfxB G539A mutant gene selected at 4 ug/ml of azithromycin after 6 passages by Etest method
Pseudomonas aeruginosa [14] = experiment: Antimicrobial activity against mutS::lox-deficient Pseudomonas aeruginosa PAOMSA biofilm harboring nfxB T86C mutant gene selected at 4 ug/ml of azithromycin after 3 passages by Etest method
Pseudomonas aeruginosa [15] = experiment: Antimicrobial activity against mutS::lox,mexD::lox-deficient Pseudomonas aeruginosa PAOMSMxD biofilm by Etest method
Pseudomonas aeruginosa [16] = experiment: Antimicrobial activity against mutS::lox-deficient Pseudomonas aeruginosa PAOMSB biofilm harboring nfxB T562C mutant gene selected at 4 ug/ml of azithromycin after 4 passages by Etest method
Pseudomonas aeruginosa [17] = experiment: Antimicrobial activity against mutS::lox,nfxB gene-deficient Pseudomonas aeruginosa PAOMSNB biofilm by Etest method
Pseudomonas aeruginosa [18] = experiment: Antimicrobial activity against mucA::lox-deficient Pseudomonas aeruginosa PAOMAB biofilm harboring nfxB G125T mutant gene selected at 0.5 ug/ml of azithromycin after 1 passages by Etest method
Pseudomonas aeruginosa [19] = experiment: Antimicrobial activity against mucA::lox, mutS::lox-deficient Pseudomonas aeruginosa PAOMSAA biofilm harboring nfxB C89T mutant gene selected at 4 ug/ml of azithromycin after 6 passages by Etest method
Pseudomonas aeruginosa [20] = experiment: Antimicrobial activity against mutS::lox-deficient Pseudomonas aeruginosa PAOMSA biofilm harboring nfxB T533C mutant gene selected at 4 ug/ml of azithromycin after 2 passages by Etest method
Pseudomonas aeruginosa [21] = experiment: Antimicrobial activity against mucA::lox, mutS::lox-deficient Pseudomonas aeruginosa PAOMSAA biofilm harboring nfxB T86C mutant gene selected at 4 ug/ml of azithromycin after 2 passages by Etest method
Pseudomonas aeruginosa [22] = experiment: Antimicrobial activity against Pseudomonas aeruginosa PAO1 A biofilm harboring deletion mutation at nucleotide 231-244 in nfxB gene selected at 1 ug/ml of azithromycin after 4 passages by Etest method
Pseudomonas aeruginosa [23] = experiment: Antimicrobial activity against Pseudomonas aeruginosa PAO1 biofilm by Etest method
Pseudomonas aeruginosa [24] = experiment: Antimicrobial activity against mucA::lox, mutS::lox-deficient Pseudomonas aeruginosa PAOMSAB biofilm harboring nfxB C25T mutant gene selected at 1 ug/ml of azithromycin after 2 passages by Etest method
Pseudomonas aeruginosa [25] = experiment: Antimicrobial activity against mutS::lox-deficient Pseudomonas aeruginosa PAOMSA biofilm harboring nfxB G461A mutant gene selected at 4 ug/ml of azithromycin after 5 passages by Etest method
Pseudomonas aeruginosa [26] = experiment: Antimicrobial activity against Pseudomonas aeruginosa PAO1 A biofilm harboring nfxB T248C mutant gene selected at 4 ug/ml of azithromycin after 4 passages by Etest method
Pseudomonas aeruginosa [27] = experiment: Antimicrobial activity against mucA::lox, mutS::lox-deficient Pseudomonas aeruginosa PAOMSAA biofilm harboring nfxB C89T mutant gene selected at 0.5 ug/ml of azithromycin after 3 passages by Etest method
Pseudomonas aeruginosa [28] = experiment: Antimicrobial activity against Pseudomonas aeruginosa PAO1 A biofilm harboring duplication mutation at nucleotide 333 in nfxB gene selected at 0.5 ug/ml of azithromycin by Etest method
Pseudomonas aeruginosa [29] = experiment: Antimicrobial activity against mutS::lox-deficient Pseudomonas aeruginosa PAOMSB biofilm harboring nfxB T380C mutant gene selected at 0.5 ug/ml of azithromycin after 2 passages by Etest method
Pseudomonas aeruginosa [30] = experiment: Antimicrobial activity against mutS::lox-deficient Pseudomonas aeruginosa PAOMSB biofilm harboring nfxB T41C mutant gene selected at 4 ug/ml of azithromycin after 3 passages by Etest method
Pseudomonas aeruginosa [31] = experiment: Antimicrobial activity against mucA::lox, mutS::lox-deficient Pseudomonas aeruginosa PAOMSAA biofilm harboring nfxB T77C mutant gene selected at 4 ug/ml of azithromycin after 3 passages by Etest method
Pseudomonas aeruginosa [32] = experiment: Antimicrobial activity against mutS::lox-deficient Pseudomonas aeruginosa PAOMSB biofilm harboring nfxB C116T mutant gene selected at 4 ug/ml of azithromycin after 5 passages by Etest method
Pseudomonas aeruginosa [33] = experiment: Antimicrobial activity against mucA::lox, mutS::lox-deficient Pseudomonas aeruginosa PAOMSAB biofilm harboring nfxB C89T mutant gene selected at 4 ug/ml of azithromycin after 6 passages by Etest method

Work on CC(C)(O/N=C(\C(=O)N[C@@H]1C(=O)N2C(C(=O)[O-])=C(C[n+]3ccccc3)CS[C@H]12)c1csc(N)n1)C(=O)O [CEFTAZIDIME] yielded an MIC (Pseudomonas aeruginosa [1]) of 1 µg/mL, an MIC (Pseudomonas aeruginosa [2]) of 1.5 µg/mL (≈ 2.74 µM) and an MIC (Pseudomonas aeruginosa [3]) of 1.5 µg/mL (≈ 2.74 µM). The MIC (Pseudomonas aeruginosa [4]) was 2 µg/mL, the MIC (Pseudomonas aeruginosa [5]) was 1.5 µg/mL and the MIC (Pseudomonas aeruginosa [6]) was 1.5 µg/mL (≈ 2.74 µM). It also gave an MIC (Pseudomonas aeruginosa [7]) of 1.5 µg/mL (≈ 2.74 µM), an MIC (Pseudomonas aeruginosa [8]) of 2 µg/mL and an MIC (Pseudomonas aeruginosa [9]) of 2 µg/mL. The MIC (Pseudomonas aeruginosa [10]) was 1.5 µg/mL (≈ 2.74 µM), the MIC (Pseudomonas aeruginosa [11]) was 2 µg/mL and the MIC (Pseudomonas aeruginosa [12]) was 1 µg/mL. It also gave an MIC (Pseudomonas aeruginosa [13]) of 1.5 µg/mL, an MIC (Pseudomonas aeruginosa [14]) of 2 µg/mL and an MIC (Pseudomonas aeruginosa [15]) of 1.5 µg/mL (≈ 2.74 µM). For the same compound, the MIC (Pseudomonas aeruginosa [16]) was 1.5 µg/mL, the MIC (Pseudomonas aeruginosa [17]) was 1.5 µg/mL (≈ 2.74 µM) and the MIC (Pseudomonas aeruginosa [18]) was 0.5 µg/mL. For the same compound, the MIC (Pseudomonas aeruginosa [19]) was 1.5 µg/mL, the MIC (Pseudomonas aeruginosa [20]) was 1.5 µg/mL and the MIC (Pseudomonas aeruginosa [21]) was 1.5 µg/mL. The MIC (Pseudomonas aeruginosa [22]) was 1 µg/mL, the MIC (Pseudomonas aeruginosa [23]) was 1.5 µg/mL (≈ 2.74 µM) and the MIC (Pseudomonas aeruginosa [24]) was 1 µg/mL. For the same compound, the MIC (Pseudomonas aeruginosa [25]) was 2 µg/mL, the MIC (Pseudomonas aeruginosa [26]) was 1.5 µg/mL and the MIC (Pseudomonas aeruginosa [27]) was 1.5 µg/mL. It also gave an MIC (Pseudomonas aeruginosa [28]) of 1.5 µg/mL, an MIC (Pseudomonas aeruginosa [29]) of 1 µg/mL and an MIC (Pseudomonas aeruginosa [30]) of 2 µg/mL. It also gave an MIC (Pseudomonas aeruginosa [31]) of 2 µg/mL, an MIC (Pseudomonas aeruginosa [32]) of 1.5 µg/mL and an MIC (Pseudomonas aeruginosa [33]) of 1.5 µg/mL.
In the case of NC[C@H]1O[C@H](O[C@H]2[C@H](O)[C@@H](O[C@H]3O[C@H](CO)[C@@H](O)[C@H](N)[C@H]3O)[C@H](N)C[C@@H]2N)[C@H](N)C[C@@H]1O [TOBRAMYCIN], the MIC (Pseudomonas aeruginosa [1]) is reported as 1 µg/mL, the MIC (Pseudomonas aeruginosa [2]) is reported as 1.5 µg/mL (≈ 3.21 µM) and the MIC (Pseudomonas aeruginosa [3]) is reported as 1.5 µg/mL (≈ 3.21 µM). For the same compound, the MIC (Pseudomonas aeruginosa [4]) was 1 µg/mL, the MIC (Pseudomonas aeruginosa [5]) was 0.5 µg/mL and the MIC (Pseudomonas aeruginosa [6]) was 1.5 µg/mL (≈ 3.21 µM). The MIC (Pseudomonas aeruginosa [7]) was 1.5 µg/mL (≈ 3.21 µM), the MIC (Pseudomonas aeruginosa [8]) was 0.5 µg/mL and the MIC (Pseudomonas aeruginosa [9]) was 1 µg/mL. It also gave an MIC (Pseudomonas aeruginosa [10]) of 0.25 µg/mL (≈ 0.535 µM), an MIC (Pseudomonas aeruginosa [11]) of 1 µg/mL and an MIC (Pseudomonas aeruginosa [12]) of 0.38 µg/mL. The MIC (Pseudomonas aeruginosa [13]) was 1 µg/mL, the MIC (Pseudomonas aeruginosa [14]) was 0.5 µg/mL and the MIC (Pseudomonas aeruginosa [15]) was 2 µg/mL (≈ 4.28 µM). It also gave an MIC (Pseudomonas aeruginosa [16]) of 1.5 µg/mL, an MIC (Pseudomonas aeruginosa [17]) of 0.5 µg/mL (≈ 1.07 µM) and an MIC (Pseudomonas aeruginosa [18]) of 0.38 µg/mL. It also gave an MIC (Pseudomonas aeruginosa [19]) of 0.5 µg/mL, an MIC (Pseudomonas aeruginosa [20]) of 0.75 µg/mL and an MIC (Pseudomonas aeruginosa [21]) of 0.5 µg/mL. The MIC (Pseudomonas aeruginosa [22]) was 0.38 µg/mL, the MIC (Pseudomonas aeruginosa [23]) was 1.5 µg/mL (≈ 3.21 µM) and the MIC (Pseudomonas aeruginosa [24]) was 0.38 µg/mL. It also gave an MIC (Pseudomonas aeruginosa [25]) of 1.5 µg/mL, an MIC (Pseudomonas aeruginosa [26]) of 0.25 µg/mL and an MIC (Pseudomonas aeruginosa [27]) of 0.75 µg/mL. For the same compound, the MIC (Pseudomonas aeruginosa [28]) was 0.19 µg/mL, the MIC (Pseudomonas aeruginosa [29]) was 1 µg/mL and the MIC (Pseudomonas aeruginosa [30]) was 1 µg/mL. It also gave an MIC (Pseudomonas aeruginosa [31]) of 1.5 µg/mL, an MIC (Pseudomonas aeruginosa [32]) of 0.5 µg/mL and an MIC (Pseudomonas aeruginosa [33]) of 1 µg/mL.
Work on C[C@@H](O)[C@H]1C(=O)N2C(C(=O)O)=C(SCCNC=N)C[C@H]12 [IMIPENEM ANHYDROUS] yielded an MIC (Pseudomonas aeruginosa [1]) of 1 µg/mL, an MIC (Pseudomonas aeruginosa [2]) of 1.5 µg/mL (≈ 5.01 µM) and an MIC (Pseudomonas aeruginosa [3]) of 1.5 µg/mL (≈ 5.01 µM). For the same compound, the MIC (Pseudomonas aeruginosa [4]) was 0.5 µg/mL, the MIC (Pseudomonas aeruginosa [5]) was 0.19 µg/mL and the MIC (Pseudomonas aeruginosa [6]) was 1.5 µg/mL (≈ 5.01 µM). The MIC (Pseudomonas aeruginosa [7]) was 1 µg/mL (≈ 3.34 µM), the MIC (Pseudomonas aeruginosa [8]) was 0.25 µg/mL and the MIC (Pseudomonas aeruginosa [9]) was 1 µg/mL. For the same compound, the MIC (Pseudomonas aeruginosa [10]) was 0.19 µg/mL (≈ 0.635 µM), the MIC (Pseudomonas aeruginosa [11]) was 1 µg/mL and the MIC (Pseudomonas aeruginosa [12]) was 0.38 µg/mL. It also gave an MIC (Pseudomonas aeruginosa [13]) of 0.25 µg/mL, an MIC (Pseudomonas aeruginosa [14]) of 0.25 µg/mL and an MIC (Pseudomonas aeruginosa [15]) of 1.5 µg/mL (≈ 5.01 µM). It also gave an MIC (Pseudomonas aeruginosa [16]) of 1 µg/mL, an MIC (Pseudomonas aeruginosa [17]) of 0.5 µg/mL (≈ 1.67 µM) and an MIC (Pseudomonas aeruginosa [18]) of 0.25 µg/mL. It also gave an MIC (Pseudomonas aeruginosa [19]) of 0.38 µg/mL, an MIC (Pseudomonas aeruginosa [20]) of 0.38 µg/mL and an MIC (Pseudomonas aeruginosa [21]) of 0.38 µg/mL. The MIC (Pseudomonas aeruginosa [22]) was 0.38 µg/mL, the MIC (Pseudomonas aeruginosa [23]) was 1.5 µg/mL (≈ 5.01 µM) and the MIC (Pseudomonas aeruginosa [24]) was 0.25 µg/mL. For the same compound, the MIC (Pseudomonas aeruginosa [25]) was 1.5 µg/mL, the MIC (Pseudomonas aeruginosa [26]) was 0.38 µg/mL and the MIC (Pseudomonas aeruginosa [27]) was 0.38 µg/mL. It also gave an MIC (Pseudomonas aeruginosa [28]) of 0.25 µg/mL, an MIC (Pseudomonas aeruginosa [29]) of 0.25 µg/mL and an MIC (Pseudomonas aeruginosa [30]) of 1 µg/mL. The MIC (Pseudomonas aeruginosa [31]) was 1 µg/mL, the MIC (Pseudomonas aeruginosa [32]) was 0.38 µg/mL and the MIC (Pseudomonas aeruginosa [33]) was 0.38 µg/mL.
